Results reported in PMC8922281, “Synthesis and In Vitro Biological Evaluation of Quinolinyl Pyrimidines Targeting Type II NADH-Dehydrogenase (NDH-2)” (ACS Infectious Diseases, 2022).
Converted amounts (≈) assume the structure as drawn. “And” between values parts separate entries of the source, which are not always exact repeats. Identical values can stand only once. Like-named read-outs stand apart in the source and are kept apart here.

Columns and labels:
MtNDH-2 = MtNDH-2 (Mycobacterium tuberculosis, UniProt P95160); test: biochemical; design: species or system M. tuberculosis; settings: MtNDH-2 IC50
MsNDH-2 = MsNDH-2 (Mycolicibacterium smegmatis, UniProt A0QYD6); test: Inhibition of MsNDH-2 (NADH oxidation with menadione, absorbance at 340 nm); type: biochemical, M. smegmatis
[1] = tested on: E. coli (ATCC 25922, wild-type); test: MIC on ESKAPE pathogens, E. coli wild-type; type: cell-based; settings: Escherichia coli
[2] = tested on: E. coli (ΔtolC efflux-defective mutant, isogenic to ATCC 25922); test: microbe, parasite or virus in culture; type: cell-based; settings: Escherichia coli, ATCC25922, read-out: MIC Ec ΔtolC
[3] = tested on: E. coli (D22, lpxC mutant, drug-hypersensitive); test: microbe, parasite or virus in culture; type: cell-based; settings: Escherichia coli, read-out: MIC Ec D22
[4] = tested on: P. aeruginosa (PAO1, wild-type); test: MIC on ESKAPE pathogens, P. aeruginosa wild-type; type: cell-based; settings: Pseudomonas aeruginosa, PAO1, P. aeruginosa PAO1, wild-type; read-out: MIC Pa WT
[5] = tested on: P. aeruginosa (PAO750 efflux-defective mutant, isogenic to PAO1); test: microbe, parasite or virus in culture; type: cell-based; settings: Pseudomonas aeruginosa, PAO1, read-out: MIC Pa efflux
[6] = tested on: A. baumannii (ATCC 19606, wild-type); test: MIC on ESKAPE pathogens, A. baumannii; type: cell-based; settings: Acinetobacter baumannii
[7] = tested on: S. aureus (ATCC 29213, wild-type); test: MIC on ESKAPE pathogens, S. aureus; type: cell-based; settings: Staphylococcus aureus, ATCC29213
[8] = tested on: M. tuberculosis strain H37Rv (ATCC 25618); test: MIC on M. tuberculosis by resazurin reduction microplate assay (REMA); type: cell-based; settings: Mycobacterium tuberculosis, M. tuberculosis H37Rv, read-out: MIC Mtb
[9] = Cytotoxicity on the MRC-5 cell line (resazurin); type: cell-based; settings: human, MRC-5SV2 cells, MRC-5SV2, 3 days
Method: MRC-5SV2 cells were cultured in Earl’s MEM + 5% FCSi. Assays were performed in 96-well microtiter plates, each well containing about 10^4 cells/well. After 3 days of incubation with or without compounds, cell viability was assessed fluorimetrically after the addition of resazurin (λex 550 nm, λem 590 nm). The results were expressed as % reduction in cell growth/viability compared to untreated control wells and CC50 was determined. Testing/retesting strategy was as described above for HepG2 cells.

[10] = tested on: K. pneumonia (ATCC 13833, wild-type); test: MIC on ESKAPE pathogens, K. pneumoniae
[11] = 95% confidence interval in parentheses, 50 nM enzyme, 50 μM menadione, >100: no significant inhibition at 100 μM
[12] = same IC50 given in μg/mL to assist comparisons with MICs
[13] = ATCC25922, E. coli ATCC 25922, wild-type, read-out: MIC Ec WT
[14] = ATCC19606, A. baumannii ATCC 19606, wild-type, read-out: MIC Ab WT

Chain of MsNDH-2 (A0QYD6 1-457): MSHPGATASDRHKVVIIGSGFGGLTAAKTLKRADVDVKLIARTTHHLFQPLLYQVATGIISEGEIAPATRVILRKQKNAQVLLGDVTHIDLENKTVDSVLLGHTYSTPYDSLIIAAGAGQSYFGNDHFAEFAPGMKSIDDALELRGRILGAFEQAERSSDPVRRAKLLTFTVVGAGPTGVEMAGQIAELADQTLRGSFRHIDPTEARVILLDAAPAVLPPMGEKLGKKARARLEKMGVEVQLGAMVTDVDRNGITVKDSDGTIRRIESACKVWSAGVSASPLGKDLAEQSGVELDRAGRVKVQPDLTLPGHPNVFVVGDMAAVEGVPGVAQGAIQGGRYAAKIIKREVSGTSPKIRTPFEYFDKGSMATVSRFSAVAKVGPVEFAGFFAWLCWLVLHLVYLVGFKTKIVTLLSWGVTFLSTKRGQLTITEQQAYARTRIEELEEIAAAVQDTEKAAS
Chain of MtNDH-2 (P95160 2-463, added parts left off): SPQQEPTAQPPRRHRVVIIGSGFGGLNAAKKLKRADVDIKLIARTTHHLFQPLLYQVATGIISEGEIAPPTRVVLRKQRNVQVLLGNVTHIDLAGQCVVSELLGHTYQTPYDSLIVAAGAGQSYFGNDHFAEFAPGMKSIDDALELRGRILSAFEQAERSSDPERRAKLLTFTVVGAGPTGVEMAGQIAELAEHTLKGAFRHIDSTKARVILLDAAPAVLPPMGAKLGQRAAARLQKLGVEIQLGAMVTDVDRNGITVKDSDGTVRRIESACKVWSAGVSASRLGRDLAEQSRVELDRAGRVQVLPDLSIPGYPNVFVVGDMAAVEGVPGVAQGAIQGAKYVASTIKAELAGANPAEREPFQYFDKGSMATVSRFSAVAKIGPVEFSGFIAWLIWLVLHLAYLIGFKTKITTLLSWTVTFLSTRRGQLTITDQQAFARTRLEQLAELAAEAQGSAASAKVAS

Row | Structure (SMILES) | IC50 (MtNDH-2) | IC50 (MsNDH-2; [11]) [µM] | IC50 (MsNDH-2; [12]) [µM] | MIC [1, 13] [mg/L] | MIC [2] [mg/L] | MIC [3] [mg/L] | MIC [4] [mg/L] | MIC [5] [mg/L] | MIC [6, 14] [mg/L] | MIC [7] [mg/L] | MIC [8] [mg/L] | IC50 at 3 days ([9]; resazurin) [µM] | IC50 at 3 days ([9]; value in parentheses) [mg/L] | MIC Kp WT [10] [mg/L] | MIC ([1]; ATCC25922, read-out: MIC Ec WT) [mg/L] | MIC ([6]; ATCC19606, read-out: MIC Ab WT) [mg/L]
1 | CN(C)c1cc(Nc2ccc3nc(-c4ccc(F)cc4)cc(N)c3c2)nc(N)n1 [Compound 8k, N^4-(4-Amino-2-(4-fluorophenyl)quinolin-6-yl)-N^6,N^6-dimethylpyrimidine-2,4,6-triamine] | 1.3 µM and 1.31 µM | 2.7 | 2.82 | 32 (≈ 82.2 µM) | 2 (≈ 5.14 µM) | 8 (≈ 20.5 µM) | > 64 | 4 (≈ 10.3 µM) | 8 (≈ 20.5 µM) | 8 (≈ 20.5 µM) | 5.9 (≈ 15.2 µM) | 1.8 | 0.7 | 64 (≈ 164 µM) | – | –
2 | CN(CCO)c1cc(Nc2ccc3nc(-c4ccc(F)cc4)cc(N)c3c2)nc(N)n1 [Compound 8l, 2-((2-Amino-6-((4-amino-2-(4-fluorophenyl)quinolin-6-yl)amino)pyrimidin-4-yl)(methyl)amino)ethan-1-ol] | 11 µM and 11.4 µM | 16 | 16.2 | 16 (≈ 38.1 µM) | 8 (≈ 19.1 µM) | 8 (≈ 19.1 µM) | > 64 | > 64 | > 64 | 32 (≈ 76.3 µM) | 9.8 (≈ 23.4 µM) | 7.8 | 3.3 | >64 | – | –
3 | Nc1nc(Nc2ccc3nc(-c4ccc(F)cc4)cc(N)c3c2)cc(N2CCC(CO)CC2)n1 [Compound 8n, (1-(2-Amino-6-((4-amino-2-(4-fluorophenyl)quinolin-6-yl)amino)pyrimidin-4-yl)piperidin-4-yl)methanol] | 4.1 µM and 4.13 µM | – | – | 64 (≈ 139 µM) | 16 (≈ 34.8 µM) | 32 (≈ 69.6 µM) | > 64 | 64 (≈ 139 µM) | 64 (≈ 139 µM) | 32 (≈ 69.6 µM) | 17.7 (≈ 38.5 µM) | 3.7 | 1.7 | >64 | – | –
4 | Nc1cc(-c2ccc(F)cc2)nc2ccc(Nc3cc(Cl)ncn3)cc12 [Compound 14, N^6-(6-Chloropyrimidin-4-yl)-2-(4-fluorophenyl)quinoline-4,6-diamine] | 1.5 µM | 5.1 | 5.19 | > 64 | > 64 | 64 (≈ 175 µM) | > 64 | > 64 | > 64 | 64 (≈ 175 µM) | 4.8 (≈ 13.1 µM) | – | – | >64 | – | –
5 | CC(C)(C)OC(=O)NC1CCN(c2cc(Nc3ccc4nc(-c5ccc(F)cc5)cc(N)c4c3)nc(N)n2)CC1 [Compound 8i, tert-Butyl (1-(2-Amino-6-((4-amino-2-(4-fluorophenyl)quinolin-6-yl)amino)pyrimidin-4-yl)piperidin-4-yl)carbamate] | 0.441 µM | 0.95 | 0.918 | 64 (≈ 118 µM) | 8 (≈ 14.7 µM) | 4 (≈ 7.34 µM) | 64 (≈ 118 µM) | 32 (≈ 58.8 µM) | 8 (≈ 14.7 µM) | 1 (≈ 1.84 µM) | 6.1 (≈ 11.2 µM) | 1.3 | 0.7 | 64 (≈ 118 µM) | – | –
6 | CCOc1cc(Nc2ccc3nc(-c4ccc(F)cc4)cc(N)c3c2)nc(N)n1 [Compound 9a, N^6-(2-Amino-6-ethoxypyrimidin-4-yl)-2-(4-fluorophenyl)quinoline-4,6-diamine] | 0.9 µM and 0.896 µM | 5.3 | 5.38 | 64 (≈ 164 µM) | 2 (≈ 5.12 µM) | 4 (≈ 10.2 µM) | > 128 | 16 (≈ 41 µM) | 2 (≈ 5.12 µM) | 2 (≈ 5.12 µM) | 3.4 (≈ 8.71 µM) | 1.6 | 0.6 | 64 (≈ 164 µM) | – | –
7 | CN1CCCC(COc2cc(Nc3ccc4nc(-c5ccc(F)cc5)cc(N)c4c3)nc(N)n2)C1 (centres unmarked) [Compound 9c, N^6-(2-Amino-6-((1-methylpiperidin-3-yl)methoxy)pyrimidin-4-yl)-2-(4-fluorophenyl)quinoline-4,6-diamine] | 3.3 µM and 3.38 µM | 14 | 13.7 | 64 (≈ 135 µM) | 16 (≈ 33.8 µM) | 32 (≈ 67.6 µM) | > 64 | 16 (≈ 33.8 µM) | > 64 | 64 (≈ 135 µM) | 37.5 (≈ 79.2 µM) | – | – | >64 | – | –
8 | CN1CCN(c2cc(Nc3ccc4nc(-c5ccc(F)cc5)cc(N)c4c3)nc(N)n2)CC1 [Compound 8c, N^6-(2-Amino-6-(4-methylpiperazin-1-yl)pyrimidin-4-yl)-2-(4-fluorophenyl)quinoline-4,6-diamine] | 6.2 µM and 6.3 µM | 40 | 40.5 | 128 (≈ 288 µM) | 16 (≈ 36 µM) | 16 (≈ 36 µM) | 64 (≈ 144 µM) | 16 (≈ 36 µM) | > 128 | 128 (≈ 288 µM) | 15.6 (≈ 35.1 µM) | – | – | >128 | – | –
9 | CC(C)N1CCN(c2cc(Nc3ccc4nc(-c5ccc(F)cc5)cc(N)c4c3)nc(N)n2)CC1 [Compound 8d, N^6-(2-Amino-6-(4-isopropylpiperazin-1-yl)pyrimidin-4-yl)-2-(4-fluorophenyl)quinoline-4,6-diamine] | 3.6 µM | 19 | 18.8 | 64 (≈ 135 µM) | 32 (≈ 67.7 µM) | 32 (≈ 67.7 µM) | 64 (≈ 135 µM) | 32 (≈ 67.7 µM) | > 128 | 128 (≈ 271 µM) | 7.6 (≈ 16.1 µM) | – | – | 128 (≈ 271 µM) | – | –
10 | Nc1nc(Nc2ccc3nc(-c4ccc(F)cc4)cc(N)c3c2)cc(N2CCN(CCO)CC2)n1 [Compound 8e, 2-(4-(2-Amino-6-((4-amino-2-(4-fluorophenyl)quinolin-6-yl)amino)pyrimidin-4-yl)piperazin-1-yl)ethan-1-ol] | 6.6 µM and 6.53 µM | > 100 | > 99 | – | 32 (≈ 67.4 µM) | 32 (≈ 67.4 µM) | 64 (≈ 135 µM) | > 128 | – | 128 (≈ 270 µM) | 16 (≈ 33.7 µM) | – | – | 128 (≈ 270 µM) | > 128 | > 128
11 | Nc1nc(Nc2ccc3nc(-c4ccc(F)cc4)cc(N)c3c2)cc(=O)[nH]1 [Compound 12, 2-Amino-6-((4-amino-2-(4-fluorophenyl)quinolin-6-yl)amino)pyrimidin-4(3H)-one] | 1.5 µM and 1.49 µM | > 20 | > 19.9 | 32 (≈ 88.3 µM) | 16 (≈ 44.2 µM) | 16 (≈ 44.2 µM) | > 64 | 32 (≈ 88.3 µM) | 32 (≈ 88.3 µM) | 32 (≈ 88.3 µM) | 9.2 (≈ 25.4 µM) | – | – | 32 (≈ 88.3 µM) | – | –
